Measured values reported in patent US9150555B2, “Amide derivative and use thereof” (Mitsubishi Tanabe Pharma Corporation, priority 2010, dated 2015).
Structures can show the parent of a compound that is named as a salt.

Columns and labels:
[1] = system: IL-17 production of mouse spleen cells stimulated by rm-IL-23; experiment: Production of IL-17 induced when mouse spleen cells were stimulated by recombinant mouse interleukin-23 (rm-IL-23); format: cell-based; conditions: Mus musculus, 72 h, inhibition of IL-17 production, DBA/1J mouse spleen cells, rm-IL-23 1 nmol/L, ELISA
Method: Effect on Production of IL-17 Induced when Mouse Spleen Cells were Stimulated by Recombinant Mouse Interleukin-23 (rm-IL-23)
An RPMI1640 (Sigma-Aldrich) was used as a medium, to which penicillin G potassium (50 units/mL; Gibco), streptomycin (50 μg/mL; Gibco) and 2-mercaptoethanol (50 μmol/l; Sigma-Aldrich) were added, and then 10% of fetal calf serum (FCS; Cell Culture Technology) inactivated at 56° C. for 30 minutes was added and used in the Test. The test compound was dissolved in dimethylsulfoxide and diluted with 10% FCS-containing RPMI1640 medium to a desired concentration and used in the test. The spleens were aseptically taken out from 6-7 week-old male DBA/1J mice (Charles River Japan, Inc.) and a single cell suspension of spleen cells was prepared and hemolyzed by hypotonic treatment with a mixture of 0.83% aqueous solution of ammonium chloride and Tris-HCl buffer of pH 7.65 (9:1). A cell suspension prepared by 10% FCS-containing RPMI1640 medium was added to flat-bottomed 96 well microtestplate at 2×10^5 cells/well. Test compounds and rm-IL-23 (R&D systems) were diluted with a medium to 1 to 1,000 nmol/L, and 1 nmol/L of the final concentration respectively, which were added and cultured at 37° C., 5% carbon dioxide and 95% air for 72 hours. After completion of the culture, culture supernatant was sampled and an amount of IL-17 production was determined by ELISA method. After sampling the supernatant, WST-8 (Seikagaku Corporation) was added at 10 μl/well and cultured at 37° C., 5% carbon dioxide and 95% air for 4 hours. Then, absorbance (O.D.: Optical Density) at 450 nm was measured by a microplate reader and the value was adopted as an index of cell survivability. An inhibition rate (%) was calculated according to the following formula on the basis of an average of an amount of IL-17 production and a O.D. values of the well containing a test compound of each concentration.
Based on the dose-response curve obtained by plotting the inhibition rate in the longitudinal axis and concentration in the horizontal axis, the concentration of the compound which inhibits the level to 50% of the value of the control group (IC50; nmol/L) was determined by linear regression analysis. The results was shown in the next Table 1

hERG = hERG (Homo sapiens, UniProt Q12809); experiment: Effects on hERG current (whole-cell clamping); conditions: human, HEK 293 cells that express hERG, pH 7.4, hERG inhibition rate (%) (1 μM), 1 μM; tail peak current; hERG-expressed HEK 293 cells
hERG, sequence (Q12809 whole entry): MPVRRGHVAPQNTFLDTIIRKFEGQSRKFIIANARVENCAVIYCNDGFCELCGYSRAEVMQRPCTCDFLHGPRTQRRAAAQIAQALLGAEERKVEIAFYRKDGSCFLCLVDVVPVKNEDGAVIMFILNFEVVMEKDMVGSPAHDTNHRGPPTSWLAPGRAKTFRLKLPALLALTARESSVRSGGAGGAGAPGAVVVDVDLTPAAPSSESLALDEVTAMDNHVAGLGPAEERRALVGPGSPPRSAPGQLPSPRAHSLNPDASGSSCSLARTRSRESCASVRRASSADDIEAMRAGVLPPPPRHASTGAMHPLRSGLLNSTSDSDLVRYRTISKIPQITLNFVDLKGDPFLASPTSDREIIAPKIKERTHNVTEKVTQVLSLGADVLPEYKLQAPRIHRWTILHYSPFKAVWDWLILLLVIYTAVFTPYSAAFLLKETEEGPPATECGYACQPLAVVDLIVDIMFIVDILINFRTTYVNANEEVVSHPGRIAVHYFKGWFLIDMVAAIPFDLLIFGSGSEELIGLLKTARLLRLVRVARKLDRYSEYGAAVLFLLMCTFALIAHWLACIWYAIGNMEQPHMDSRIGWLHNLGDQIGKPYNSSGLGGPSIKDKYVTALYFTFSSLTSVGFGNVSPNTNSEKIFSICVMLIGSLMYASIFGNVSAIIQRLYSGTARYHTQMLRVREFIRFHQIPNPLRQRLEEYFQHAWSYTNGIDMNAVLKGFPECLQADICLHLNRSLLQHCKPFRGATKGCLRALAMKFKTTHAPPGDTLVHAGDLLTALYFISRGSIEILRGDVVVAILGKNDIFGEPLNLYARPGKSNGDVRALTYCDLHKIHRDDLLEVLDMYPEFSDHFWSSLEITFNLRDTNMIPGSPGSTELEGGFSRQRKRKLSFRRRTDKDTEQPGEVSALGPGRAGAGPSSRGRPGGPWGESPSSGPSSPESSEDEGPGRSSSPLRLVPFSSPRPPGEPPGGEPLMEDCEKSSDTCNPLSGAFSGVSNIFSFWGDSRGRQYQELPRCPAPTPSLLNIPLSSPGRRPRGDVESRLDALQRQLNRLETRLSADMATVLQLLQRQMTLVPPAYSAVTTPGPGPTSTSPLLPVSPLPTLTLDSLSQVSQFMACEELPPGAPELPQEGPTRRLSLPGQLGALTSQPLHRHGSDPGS

Cc1c(C(=O)Nc2ccc([C@]3(C#N)CC[C@@H](N4CCOCC4)CC3)nc2)cnn1-c1ccc(C(F)(F)F)cn1 [Example D1, N-{6-[r-1-Cyano-c-4-(morpholin-4-yl)cyclohexyl]pyridin-3-yl}-5-methyl-1-[5-(trifluoromethyl)pyridin-2-yl]-1H-pyrazole-4-carboxamide hydrochloride]
IC50 [1]: 78.9 nM
inhibition at 1 µM (hERG): 22.6%

Cc1c(C(=O)Nc2ccc(C3=CCC(N4CCOCC4)CC3)nc2)cnn1-c1ccc(C2CC2)cn1 (centres unmarked) [Example D5, 1-(5-Cyclopropylpyridin-2-yl)-5-methyl-N-{6-[4-(morpholin-4-yl)cyclohex-1-en-1-yl]pyridin-3-yl}-1H-pyrazole-4-carboxamide mesylate]
IC50 [1]: 119 nM
inhibition at 1 µM (hERG): 15.1%

Cc1c(C(=O)Nc2ccc([C@H]3CC[C@H](N4CCOCC4)CC3)nc2)cnn1-c1ccc(C(F)(F)F)cn1 [Example D6, trans-5-Methyl-N-{6-[4-(morpholin-4-yl)cyclohexyl]pyridin-3-yl}-1-[5-(trifluoromethyl)-pyridin-2-yl]-1H-pyrazole-4-carboxamide mesylate]
IC50 [1]: 63.3 nM
inhibition at 1 µM (hERG): 24.5%

Cc1c(C(=O)Nc2ccc([C@]3(C#N)CC[C@@H](N4CCOCC4)CC3)nc2)cnn1-c1ncc(Cl)cc1Cl [Example D7, N-{6-[r-1-Cyano-c-4-(morpholin-4-yl)cyclohexyl]pyridin-3-yl}-1-(3,5-dichloropyridin-2-yl)-5-methyl-1H-pyrazole-4-carboxamide hydrochloric acid salt]
IC50 [1]: 208 nM
inhibition at 1 µM (hERG): 24.7%

Cc1c(C(=O)Nc2ccc([C@]3(C#N)CC[C@@H](N4CCC(O)C4)CC3)nc2)cnn1-c1ccc(C(F)(F)F)cn1 (some centres unmarked) [Example D13, N-{6-[r-1-Cyano-c-4-(3-hydroxypyrrolidin-1-yl)cyclohexyl]pyridin-3-yl}-5-methyl-1-[5-(trifluoromethyl)pyridin-2-yl]-1H-pyrazole-4-carboxamide]
IC50 [1]: 154 nM
inhibition at 1 µM (hERG): 22%

Cc1c(C(=O)Nc2ccc([C@]3(C#N)CC[C@@H](N4CCOCC4)CC3)nc2)cnn1-c1ncc(C(F)(F)F)cc1F [Example D14, N-{6-[r-1-Cyano-c-4-(morpholin-4-yl)cyclohexyl]pyridin-3-yl}-1-[3-fluoro-5-(trifluoromethyl)pyridin-2-yl]-5-methyl-1H-pyrazole-4-carboxamide]
IC50 [1]: 162 nM
inhibition at 1 µM (hERG): 6.4%

CO[C@H]1CC[C@](C#N)(c2ccc(NC(=O)c3cnn(-c4ccc(C)cc4)c3C)cn2)CC1 [Example D18, N-{6-[r-1-Cyano-c-4-methoxycyclohexyl]pyridin-3-yl}-5-methyl-1-(4-methylphenyl)-1H-pyrazole-4-carboxamide]
IC50 [1]: 251 nM
inhibition at 1 µM (hERG): 7.2%

Cc1cc(NC(=O)c2cnn(-c3ncc(Cl)cc3F)c2C)cnc1C1=CCC(N2CCOCC2)CC1 (centres unmarked) [Example D19, 1-[5-Chloro-3-fluoropyridin-2-yl]-5-methyl-N-{5-methyl-6-[4-(morpholin-4-yl)cyclohex-1-en-1-yl]pyridin-3-yl}-1H-pyrazole-4-carboxamide]
IC50 [1]: 92 nM
inhibition at 1 µM (hERG): 35.1%

Cc1cc(NC(=O)c2cnn(-c3ccc(C(F)(F)F)cn3)c2C)cnc1C1=CC[C@H](N2CCOCC2)CC1 [Example D21, (R)-5-Methyl-N-{5-methyl-6-[4-(morpholin-4-yl)cyclohex-1-en-1-yl]pyridin-3-yl}-1-[5-(trifluoromethyl)pyridin-2-yl]-1H-pyrazole-4-carboxamide]
IC50 [1]: 39.5 nM
inhibition at 1 µM (hERG): 14.3%

Cc1cc(NC(=O)c2cnn(-c3ccc(C(F)(F)F)cn3)c2C)cnc1C1=CC[C@@H](N2CCOCC2)CC1 [Example D22, (S)-5-Methyl-N-{5-methyl-6-[4-(morpholin-4-yl)cyclohex-1-en-1-yl]pyridin-3-yl}-1-[5-(trifluoromethyl)pyridin-2-yl]-1H-pyrazole-4-carboxamide]
IC50 [1]: 36.2 nM
inhibition at 1 µM (hERG): 31%

Cc1cc(NC(=O)c2cnn(-c3ccc(C(F)(F)F)cn3)c2C)cnc1C1=CCC(O)CC1 (centres unmarked) [Example D23, N-[6-(4-Hydroxycyclohex-1-en-1-yl)-5-methylpyridin-3-yl]-5-methyl-1-[5-(trifluoromethyl)-pyridin-2-yl]-1H-pyrazole-4-carboxamide]
IC50 [1]: 105 nM
inhibition at 1 µM (hERG): 20.2%

Cc1cc(NC(=O)c2cnn(-c3ncc(C(F)(F)F)cc3F)c2C)cnc1C1=CCC(N2CCOCC2)CC1 (centres unmarked) [Example D24, 1-[3-Fluoro-5-(trifluoromethyl)pyridin-2-yl]-5-methyl-N-{5-methyl-6-[4-(morpholin-4-yl)cyclohex-1-en-1-yl]pyridin-3-yl}-1H-pyrazole-4-carboxamide mesylate]
IC50 [1]: 40.3 nM
inhibition at 1 µM (hERG): 20.9%

Cc1cc(NC(=O)c2cnn(-c3ncc(C(F)(F)F)cc3F)c2C)cnc1C1=CCC(O)CC1 (centres unmarked) [Example D25, 1-[3-Fluoro-5-(trifluoromethyl)pyridin-2-yl]-5-methyl-N-[5-methyl-6-(4-hydroxycyclohex-1-en-1-yl)pyridin-3-yl]-1H-pyrazole-4-carboxamide]
IC50 [1]: 148 nM
inhibition at 1 µM (hERG): 4.2%

Cc1c(C(=O)Nc2ccc([C@]3(C#N)CC[C@@H](N4CCOCC4)CC3)nc2)cnn1-c1ccc(C(C)C)cn1 [Example D26, N-{6-[r-1-Cyano-c-4-(morpholin-4-yl)cyclohexyl]pyridin-3-yl}-1-(5-isopropylpyridin-2-yl)-5-methyl-1H-pyrazole-4-carboxamide mesylate]
IC50 [1]: 125 nM
inhibition at 1 µM (hERG): 26.4%

Cc1c(C(=O)Nc2ccc(C3(C#N)CCC4(CC3)OCCO4)nc2)cnn1-c1ccc(Br)cn1 [Example D29]
IC50 [1]: 86.9 nM
inhibition at 1 µM (hERG): 27.7%

Cc1c(C(=O)Nc2ccc(C3(C#N)CCC4(CC3)OCCO4)nc2)cnn1-c1ccc(C(F)(F)F)cn1 [Example D41]
IC50 [1]: 32.8 nM
inhibition at 1 µM (hERG): 26.4%

Cc1c(C(=O)Nc2ccc([C@]3(O)CC[C@@H](N4CCOCC4)CC3)nc2)cnn1-c1ccc(C(F)(F)F)cc1 [Example D53]
IC50 [1]: 169 nM
inhibition at 1 µM (hERG): 25.1%

Cc1c(C(=O)Nc2ccc([C@H]3CC[C@H](N4CCOCC4)CC3)nc2)cnn1-c1ccc(C(F)F)cn1 [Example D63]
IC50 [1]: 207 nM
inhibition at 1 µM (hERG): 40.4%

Cc1c(C(=O)Nc2ccc([C@H]3CC[C@H](N4CCOCC4)CC3)nc2)cnn1-c1ccc(C2CC2)cn1 [Example D64]
IC50 [1]: 160 nM
inhibition at 1 µM (hERG): 27.9%

Cc1c(C(=O)Nc2ccc([C@H]3CC[C@H](N4CCOCC4)CC3)nc2)cnn1-c1ncc(C2CC2)cc1F [Example D65]
IC50 [1]: 139 nM
inhibition at 1 µM (hERG): 5.5%

Cc1c(C(=O)Nc2ccc(C3=CCC(N4CCOCC4)CC3)nc2)cnn1-c1ccc(C(F)(F)F)cc1 (centres unmarked) [Example D71]
IC50 [1]: 62.5 nM
inhibition at 1 µM (hERG): 16.5%

Cc1c(C(=O)Nc2ccc([C@]3(C#N)CC[C@@H](N4CCOCC4)CC3)nc2)cnn1-c1ccc(C(C)(C)C)cc1 [Example D88]
IC50 [1]: 52.6 nM
inhibition at 1 µM (hERG): 43%

Cc1c(C(=O)Nc2ccc([C@]3(C#N)CC[C@@H](N4CCOCC4)CC3)nc2)cnn1-c1ccc(F)cc1 [Example D89]
IC50 [1]: 183 nM
inhibition at 1 µM (hERG): 44.4%

Cc1c(C(=O)Nc2ccc([C@]3(C#N)CC[C@@H](N4CCOCC4)CC3)nc2)cnn1-c1ccc(C(C)(C)C)cn1 [Example D104]
IC50 [1]: 212 nM
inhibition at 1 µM (hERG): 13.8%

Cc1ccc(-n2ccc(C(=O)Nc3ccc(C4(C#N)CCC5(CC4)OCCO5)nc3)c2)cc1C [Example D153]
IC50 [1]: 55.1 nM
inhibition at 1 µM (hERG): 47.6%

Cc1c(C(=O)Nc2ccc(C3CCC4(CC3)OCCO4)nc2)cnn1-c1ccc(C(C)(C)C)cc1 [Example D165]
IC50 [1]: 44 nM
inhibition at 1 µM (hERG): 8.9%

Cc1cc(NC(=O)c2cnn(-c3ncc(C(F)(F)F)cc3Cl)c2C)cnc1C1=CCC(N2CCOCC2)CC1 (centres unmarked) [Example D175]
IC50 [1]: 49.8 nM
inhibition at 1 µM (hERG): 31.7%

Cc1cc(NC(=O)c2cnn(-c3ncc(C4CC4)cc3F)c2C)cnc1C1=CCC(N2CCOCC2)CC1 (centres unmarked) [Example D177]
IC50 [1]: 66 nM
inhibition at 1 µM (hERG): 13%

Cc1cc(NC(=O)c2cnn(-c3ncc(C(F)(F)F)cc3C)c2C)cnc1C1=CCC(N2CCOCC2)CC1 (centres unmarked) [Example D188]
IC50 [1]: 86.3 nM
inhibition at 1 µM (hERG): 40%

COc1cc(NC(=O)c2cnn(-c3ccc(C(F)(F)F)cn3)c2C)cnc1C1=CCC(N(C)C(=O)C(C)(C)C)CC1 (centres unmarked) [Example K69, N-(6-{4-[N-(2,2-Dimethylpropion-1-yl)-N-methylamino]cyclohex-1-en-1-yl}-5-methoxypyridin-3-yl)-5-methyl-1-[5-(trifluoromethyl)pyridin-2-yl]-1H-pyrazole-4-carboxamide]
inhibition at 1 µM (hERG): 1.3%
